The source of these data is US7148253B2, “4-thio coumarins” (priority 2002, dated 2006).

Data set [1] concerns HCV RNA in stably HCV RNA-replicating cell line AVA5. Nature of the data set: Primary in vitro anti-HCV screen: intracellular HCV RNA levels in AVA5 cells (branched DNA assay). Particulars: 10 μM, AVA5, duplicate cultures; for HCV % Control: HCV RNA as percentage of untreated cultures; for HCV Copies/ml: once daily for three days. It is filed as cell-based, Hepatitis C virus. How it is done: Primary in vitro anti-HCV screen. The antiviral activity of test compounds were assayed in the stably HCV RNA-replicating cell line, AVA5, derived by transfection of the human hepatoblastoma cell line, Huh7 (Blight, et al., 2000, Science 290: 1972). The test compounds were added to dividing cultures once daily for three days. The media was changed with each addition of the compounds. […] Intracellular HCV RNA levels and cytotoxicity are assessed 24 hours after the last dose of compound.
(§1) Assays were conducted using a single dose of test compound. Duplicate cultures for HCV RNA levels (on 48-well plates) and triplicate cultures for cytotoxicity (on 96-well plates) are used.
(§2) Intracellular HCV RNA levels were measured using a commercial assay (Veresant®, Bayer Diagnostics, Inc. Ross, et al. (2002) J. Virol. Meth. 101:159–168, Quantitation of hepatitic C virus RNA by third generation branched DNA-based signal amplification assay). Cytotoxicity was measured using an established neutral red dye uptake assay (Korba, B. E. and J. L. Gerin. 1992. Use of a standardized cell culture assay to determine activities of nucleoside analogs against hepatitis B virus relication. Antivir. Res. 19:55–70). HCV RNA levels in the treated cultures are expressed as a percentage of the mean levels of RNA detected in untreated cultures. A level of 30% or less, HCV RNA relative to control cultures may be considered to be a positive antiviral effect. A level of 50% or less, neutral red dye uptake relative to control cultures may be considered to be a cytotoxic effect.

Data set [2] has as its system HCV RNA-replicating cell line AVA5. Nature of the data set: Normalized Viral Assay. Type of data set: cell-based, Hepatitis C virus. How it is done: (§3) Primary in vitro anti-HCV screen. The antiviral activity of test compounds were assayed in the stably HCV RNA-replicating cell line, AVA5, derived by transfection of the human hepatoblastoma cell line, Huh7 (Blight, et al., 2000, Science 290: 1972). The test compounds were added to dividing cultures once daily for three days. The media was changed with each addition of the compounds. Cultures generally start the assay at 30–50% confluence and reach confluence during the last day of treatment.

Data set [3] relates to AVA5 cell line. Nature of the data set: MTS Cell Viability.
Data set [4] deals with AVA5 cell line. Briefly: ATP Cell Viability.
Data set [5] has as its system AVA5 cell line (derived from human hepatoblastoma cell line Huh7). Nature of the data set: Primary screen cytotoxicity: neutral red dye uptake. Type of data set: cell-based. The note with it: 10 μM, AVA5; for Neutral Red % Control: dye uptake relative to untreated cultures. How it is done:
as §3, §1, §2

Several values for one entry are separate records, joined by “and”; a condition that tells them apart may be missing. Equal entries are not always repeated.

As to `O=c1oc2ccccc2c(Sc2ccc(Br)cc2)c1Sc1ccc(F)cc1` [VQ_412], in data set [1], the “HCV % Control” value was 54 % Control and 49 % Control; the “HCV Copies/ml” value was 726473 Copies/ml and 656755 Copies/ml.
On to `Cc1ccc(Sc2c(Sc3ccc(F)cc3Cl)c3ccccc3oc2=O)cc1C` [VQ_437], for which, in data set [1], the “HCV % Control” value is 41 % Control and 38 % Control; the “HCV Copies/ml” value is 556515 Copies/ml and 507191 Copies/ml.
As to `Cc1cc(C)cc(Sc2c(Sc3cccc(Cl)c3)c3ccccc3oc2=O)c1` [VQ_468], in data set [1], the “HCV % Control” value is 23 % Control and 24 % Control; the “HCV Copies/ml” value is 306102 Copies/ml and 318777 Copies/ml.
As to `Cc1cc(C)cc(Sc2c(Sc3ccc(F)cc3Cl)c3ccccc3oc2=O)c1` [VQ_473], in data set [1], the “HCV % Control” value is given as 39 % Control; the “HCV Copies/ml” value was 529743 Copies/ml and 523506 Copies/ml.
Take `O=c1oc2ccccc2c(Sc2ccc(Br)cc2)c1Sc1ccc(F)cc1` [compound 412]: the “Normalized Viral Assay” value came out at 55.65 in data set [2] (1 μM), 28.13 in data set [2] (5 μM) and 16.13 in data set [2] (10 μM).
As to `Cc1ccc(Sc2c(Sc3ccc(F)cc3Cl)c3ccccc3oc2=O)cc1C` [compound 437], the “Normalized Viral Assay” value turned out to be 59.33 in data set [2] (1 μM), 34.83 in data set [2] (5 μM) and 20.41 in data set [2] (10 μM).
Turning to `Cc1cc(C)cc(Sc2c(Sc3ccc(F)cc3Cl)c3ccccc3oc2=O)c1` [compound 473], the results for the “Normalized Viral Assay” value in data set [2] (1 μM), in data set [2] (5 μM) and in data set [2] (10 μM) were 68.16, 40.79 and 12.45, respectively.
Take `COc1ccc2oc(=O)cc(Sc3ccccc3F)c2c1` [compound 824]: the “HCV % Control” value in data set [1] (listed as VQ_824) was 101 % Control and 90 % Control. Moreover, the “HCV Copies/ml” value in data set [1] (listed as VQ_824) is 1357786 Copies/ml and 1211659 Copies/ml. For the same molecule, the “MTS Cell Viability” value in data set [3] (5 μM) was determined as 94.56; in data set [3] (10 μM) it was 84.15. Besides, the “ATP Cell Viability” value in data set [4] (5 μM) was 91.28; in data set [4] (10 μM) it was 75.61. Moreover, the figures for the “Normalized Viral Assay” value in data set [2] (5 μM) and in data set [2] (10 μM) were 52.29 and 17.28, respectively. For the same molecule, in data set [5] (listed as VQ_824), the “Neutral Red % Control” value was 99 % Control and 102 % Control. Moreover, in data set [5] (listed as VQ_824), the “Neutral Red O.D.” value was 2.214 O.D. and 2.274 O.D.
As to `COc1ccc2oc(=O)cc(Sc3ccc(F)cc3F)c2c1` [compound 830], the “MTS Cell Viability” value stood at 112.38 in data set [3] (1 μM), 101.06 in data set [3] (5 μM) and 98.85 in data set [3] (10 μM). Further, the “ATP Cell Viability” value in data set [4] (1 μM) was found to be 106.44; in data set [4] (5 μM), 97.11; in data set [4] (10 μM) it was 104.41. Also, the “Normalized Viral Assay” value in data set [2] (1 μM) worked out at 87.63; in data set [2] (5 μM) it was 46.87; in data set [2] (10 μM), 40.35.
With `O=c1cc(Sc2ccccc2Cl)c2cc(F)ccc2o1` [compound 894], the “HCV % Control” value in data set [1] (listed as VQ_894) is 95 % Control and 84 % Control. The “HCV Copies/ml” value in data set [1] (listed as VQ_894) was 1277826 Copies/ml and 1128325 Copies/ml. Besides, the figures for the “MTS Cell Viability” value in data set [3] (1 μM), in data set [3] (5 μM) and in data set [3] (10 μM) were 104.53, 83.91 and 81.24, respectively. Also, the “ATP Cell Viability” value in data set [4] (1 μM) came out at 113.25; in data set [4] (5 μM), 109.42; in data set [4] (10 μM), 58.26. In addition, the figures for the “Normalized Viral Assay” value in data set [2] (1 μM), in data set [2] (5 μM) and in data set [2] (10 μM) were 35.65, 9.04 and 6.84, respectively. Further, the “Neutral Red % Control” value in data set [5] (listed as VQ_894) is 100 % Control and 101 % Control. Moreover, in data set [5] (listed as VQ_894), the “Neutral Red O.D.” value is 2.234 O.D. and 2.257 O.D.
For the molecule `O=c1cc(Sc2ccc(F)cc2Cl)c2cc(F)ccc2o1` [compound 899], the “HCV % Control” value in data set [1] (listed as VQ_899) was 66 % Control and 65 % Control. In addition, in data set [1] (listed as VQ_899), the “HCV Copies/ml” value is 886875 Copies/ml and 873484 Copies/ml. Also, the “MTS Cell Viability” value in data set [3] (1 μM) was 106.10; in data set [3] (5 μM), 90.22; in data set [3] (10 μM), 85.37. Moreover, the “ATP Cell Viability” value in data set [4] (1 μM) is 102.77; in data set [4] (5 μM), 112.43; in data set [4] (10 μM), 105.60. The “Normalized Viral Assay” value is reported as 40.10 in data set [2] (1 μM), 10.66 in data set [2] (5 μM) and 10.32 in data set [2] (10 μM). Further, the “Neutral Red % Control” value in data set [5] (listed as VQ_899) is 100 % Control and 102 % Control. Besides, the “Neutral Red O.D.” value in data set [5] (listed as VQ_899) is 2.237 O.D. and 2.286 O.D.
Regarding `O=c1cc(Sc2cc(Cl)ccc2Cl)c2cc(F)ccc2o1` [compound 901], the “HCV % Control” value in data set [1] worked out at 63 % Control. In addition, the “HCV Copies/ml” value in data set [1] (listed as VQ_901) was 851852 Copies/ml and 846803 Copies/ml. The results for the “MTS Cell Viability” value in data set [3] (1 μM), in data set [3] (5 μM) and in data set [3] (10 μM) were 107.32, 97.37 and 86.10, respectively. Further, the “ATP Cell Viability” value was 105.62 in data set [4] (1 μM), 106.63 in data set [4] (5 μM) and 79.01 in data set [4] (10 μM). Besides, the “Normalized Viral Assay” value in data set [2] (1 μM) stood at 24.87; in data set [2] (5 μM), 12.80; in data set [2] (10 μM), 8.34. In data set [5] (listed as VQ_901), the “Neutral Red % Control” value was 102 % Control and 100 % Control. For the same molecule, the “Neutral Red O.D.” value in data set [5] (listed as VQ_901) was 2.287 O.D. and 2.241 O.D.
With `O=c1cc(Sc2ccccc2F)c2cc(F)ccc2o1` [compound 904], in data set [1] (listed as VQ_904), the “HCV % Control” value is 79 % Control and 75 % Control. Also, in data set [1] (listed as VQ_904), the “HCV Copies/ml” value is 1072174 Copies/ml and 1013181 Copies/ml. Moreover, the “MTS Cell Viability” value was determined as 116.41 in data set [3] (1 μM), 108.04 in data set [3] (5 μM) and 86.22 in data set [3] (10 μM). The “ATP Cell Viability” value in data set [4] (1 μM) is 107.54; in data set [4] (5 μM), 100.32; in data set [4] (10 μM), 74.11. Further, the “Normalized Viral Assay” value is 50.52 in data set [2] (1 μM), 37.87 in data set [2] (5 μM) and 9.27 in data set [2] (10 μM). Besides, the “Neutral Red % Control” value in data set [5] (listed as VQ_904) is 100 % Control and 101 % Control. Also, in data set [5] (listed as VQ_904), the “Neutral Red O.D.” value is 2.237 O.D. and 2.255 O.D.
